{"source": "paper PMC8070256", "about": "“Feasibility of Developing Radiotracers for MDM2: Synthesis and Preliminary Evaluation of an ^18F-Labeled Analogue of the MDM2 Inhibitor SP-141” (Pharmaceuticals, 2021)", "key": {"MCF-7 cells [1]": {"system": "MCF-7 cells", "experiment": "Cell uptake of [^18F]1 in MCF-7 cells after 21 h pretreatment", "assay_type": "cell-based, human", "details": "MCF-7 cells", "protocol": "(§1) The ability of [^18F]1 to bind to MDM2 expressing human tumor cells was assessed using two wild-type p53 cell lines, MCF-7 breast adenocarcinoma, and HepG2 hepatocellular carcinoma. These cell lines have significant MDM2 expression levels and have been utilized previously for assessing potential MDM2 inhibitors, including SP-141 [12, 24, 25]. […] Thus, to examine the uptake and specificity of [^18F]1 by MDM2 expressing tumor cell lines, MCF-7 and HepG2 cells were treated with 0, 1, 5, or 10 µM SP-141 for 21 h, and then assessed for [^18F]1 uptake for 1 h.\n(§2) Cell uptake studies of [^18F]1 were conducted using MCF-7 and HepG2 cell lines. Briefly, cells plated in 24-well plates (200,000/well) were treated with varying concentrations of SP-141 (1, 5, or 10 µM) or vehicle for 21 h and incubated with a fresh medium containing [^18F]1 (~18.5 kBq in 0.5 mL medium) for 1 h. Next, the incubation medium was removed, cells were rinsed with cold PBS (3 × 0.5 mL) and lysed using Cell Culture Lysis Reagent (0.25 mL, Promega Corporation, Madison, WI, USA) followed by a rinse with PBS (0.125 mL/well). For each well, the supernatant, PBS washes, and the cell lysate were measured for radioactivity in an automated gamma counter (Wallac Wizard™, Perkin Elmer, Waltham, MA, USA). Subsequently, cell lysates were analyzed for protein concentration using the Bradford assay (Bio-Rad, Hercules, CA, USA). Cell uptake for each well was normalized to its protein content and expressed as % uptake/mg protein. Results are presented as mean ± SD for three wells."}, "HepG2 cells [2]": {"system": "HepG2 cells", "experiment": "Cell uptake of [^18F]1 in HepG2 cells after 21 h pretreatment", "assay_type": "cell-based, human", "details": "HepG2 cells", "protocol": "as §1\nas §2, with “Briefly, cells plated in 24-well plates (200,000/well) were treated with varying concentrations of SP-141 (1, 5, or 10 µM) or vehicle for 21 h and incubated with a fresh medium containing [^18F]1 (~18.5 kBq in 0.5 mL medium) for 1 h.” left out"}, "MDM2 gene expression": {"system": "MDM2 gene expression", "details": "AML patients, peripheral blasts, after 10 days of treatment; cited from earlier work"}, "MCF-7 xenograft": {"system": "MCF-7 xenograft", "parameters": "method as in PMID 25271708, PMID 31832522, PMID 29354330", "details": "40 mg/kg i.p., 5 days a week, cited from earlier work"}, "MDM2": {"biological_target": "MDM2", "details": "read-out: Binding affinity determined by SPR analysis; cited from earlier work"}, "MCF-7 cells [3]": {"system": "MCF-7 cells", "parameters": "method as in PMID 25271708, PMID 31832522", "details": "0.5–1.0 µM for 24 h; cited from earlier work"}, "HepG2 xenograft": {"system": "HepG2 xenograft", "parameters": "method as in PMID 25271708, PMID 31832522, PMID 29354330", "details": "40 mg/kg i.p., 5 days a week, cited from earlier work"}, "MCF-7 cells [4]": {"system": "MCF-7 cells", "experiment": "[^18F]1 uptake with or without co-incubated 100 µM SP-141, MCF-7", "assay_type": "cell-based, human", "details": "100 µM SP-141 co-incubation, 15 min", "protocol": "(§3) Because MDM2 is a transcriptional target of p53, stabilization of p53 levels after MDM2 inhibition with SP-141 is expected to cause a temporary increase in MDM2 protein expression via the autoregulatory loop. Thus, we hypothesized that treatment of tumor cells with high concentrations of SP-141 for shorter periods (e.g., <4 h) might induce MDM2 expression as a consequence of p53 activation, whereas low concentrations of SP-141 (≤1 µM) and longer incubation times (≥20 h) appear to promote MDM2 degradation in vitro. To investigate this, MCF-7 and HepG2 cells were incubated with or without 100 µM SP-141 for 15–120 min, and uptake was measured as a percentage input dose for each time point. Hep3B, a p53 null cell line, was used as a negative control. […]\n(§4) For these studies, MCF-7 (WT-p53), HepG2 (WT-p53), and Hep3B (p53 null) cells were plated in 24-well plates (20,000/well) and incubated with [^18F]1 (~18.5 kBq in 0.5 mL) with or without 100 µM SP-141 for 15–120 min under standard cell culture conditions. […] The radioactivity in supernatants, wash fractions, and cell lysates was counted for each well using the gamma counter (Wallac Wizard). Cell uptake was calculated as the percentage of the input dose for the two treatment conditions (with/without 100 µM SP-141)."}, "Hep3B cells": {"system": "Hep3B cells", "experiment": "[^18F]1 uptake with or without co-incubated 100 µM SP-141, Hep3B", "assay_type": "cell-based, human", "details": "Hep3B (p53 null) cells, 100 µM SP-141 co-incubation, 15-120 min", "protocol": "as §3, §4"}, "MDM2 protein": {"biological_target": "MDM2 protein", "parameters": "method as in PMID 25271708", "details": "read-out: Binding affinity (Ki); cited from earlier work"}, "HepG2 cells [5]": {"system": "HepG2 cells", "experiment": "[^18F]1 uptake with or without co-incubated 100 µM SP-141, HepG2", "assay_type": "cell-based, human", "details": "100 µM SP-141 co-incubation, 15 min", "protocol": "as §3, §4"}, "HepG2 cells [6]": {"system": "HepG2 cells", "parameters": "method as in PMID 25271708, PMID 31832522", "details": "0.5–1.0 µM for 24 h; cited from earlier work"}}, "data": [{"smiles": "COc1ccc(C2=N[C@@H](c3ccc(Cl)cc3)[C@@H](c3ccc(Cl)cc3)N2C(=O)N2CCNC(=O)C2)c(OC(C)C)c1", "note": "[Nutlin-3, reference compound]", "values": [{"measurement": "Change of [^18F]1 uptake after pretreatment", "setting": "MCF-7 cells [1]; 1 and 5 µM Nutlin-3, 21 h", "result": "significant increases"}, {"measurement": "Inhibitory effect of pretreatment on [^18F]1 uptake", "setting": "MCF-7 cells [1]; Nutlin-3 1-10 µM for 21 h", "result": "did not show any inhibitory effects"}, {"measurement": "Change of [^18F]1 uptake after pretreatment", "setting": "HepG2 cells [2]; 10 µM Nutlin-3, 21 h", "result": "significant increases"}, {"measurement": "Inhibitory effect of pretreatment on [^18F]1 uptake", "setting": "HepG2 cells [2]; Nutlin-3 1-10 µM for 21 h", "result": "did not show any inhibitory effects"}]}, {"smiles": "CCOc1cc(C(C)(C)C)ccc1C1=N[C@@](C)(c2ccc(Cl)cc2)[C@@](C)(c2ccc(Cl)cc2)N1C(=O)N1CCN(CCCS(C)(=O)=O)CC1", "note": "[RG7112]", "values": [{"measurement": "Increase in median MDM2 gene expression levels", "setting": "MDM2 gene expression", "result": 2.8, "unit": "fold"}]}, {"smiles": "COc1ccc2[nH]c3c(-c4cccc5ccccc45)nccc3c2c1", "note": "[SP-141, 6-Methoxy-1-(naphthalen-1-yl)-9H-pyrido[3,4-b]indole]", "values": [{"measurement": "Tumor growth", "setting": "MCF-7 xenograft; after 42 days", "result": "inhibited tumor growth significantly"}, {"measurement": "MDM2 levels in tumors", "setting": "MCF-7 xenograft", "result": "decreased MDM2 levels in tumors"}, {"measurement": "Decrease of [^18F]1 uptake compared to vehicle-treated cells", "setting": "MCF-7 cells [1]; 1 µM SP-141 for 21 h", "result": 76, "unit": "%"}, {"measurement": "Kd", "setting": "MDM2", "result": 43, "unit": "nM"}, {"measurement": "Cellular MDM2 levels", "setting": "MCF-7 cells [3]", "result": "decreases cellular MDM2 levels"}, {"measurement": "Tumor growth", "setting": "HepG2 xenograft; after 20 days", "result": "inhibited tumor growth significantly"}, {"measurement": "MDM2 levels in tumors", "setting": "HepG2 xenograft", "result": "decreased MDM2 levels in tumors"}, {"measurement": "Increase of [^18F]1 uptake compared to cells incubated with only [^18F]1", "setting": "MCF-7 cells [4]", "result": 1.2, "unit": "fold"}, {"measurement": "Effect of SP-141 on [^18F]1 uptake", "setting": "Hep3B cells", "result": "no effect"}, {"measurement": "Ki", "setting": "MDM2 protein", "result": "28 ± 6", "unit": "nM"}, {"measurement": "Increase of [^18F]1 uptake compared to cells incubated with only [^18F]1", "setting": "HepG2 cells [5]", "result": 1.4, "unit": "fold"}, {"measurement": "Effect of SP-141 pretreatment on [^18F]1 uptake", "setting": "HepG2 cells [2]; 10 µM SP-141 for 21 h", "result": "no noticeable effects"}, {"measurement": "Cellular MDM2 levels", "setting": "HepG2 cells [6]", "result": "decreases cellular MDM2 levels"}]}]}
